In one test the test system is Δtlp2,4 mutant. Type of test: cell-based. The settings on record: P < 0.05.
In a further test the test system is Δtlp2,3,4 triple mutant. Type of test: cell-based. The settings on record: P < 0.05.
The subject of the next test is Δtlp3,4 mutant. The format is cell-based.
In a further test the test system is Δtlp2,3 mutant. The format is cell-based. The settings on record: P < 0.05.
A further test relates to WT Tlp3^LBD. Description: SPR competition assay (A-B-A inject). The settings on record: 15 seconds after injection-B; glucose 300 µM, fucose 300 μM, malic acid 200 μM. The format is binding, Campylobacter jejuni. On the procedure: . Competition A-B-A analyses determine the specificity of the potential ligand-binding site preferences of WT Tlp3^LBD. The bound protein is saturated with the first analyte (A), followed by the introduction of a second analyte (B); the assay is designed to show whether a cumulative response is observed after the second analyte (B) is added. A cumulative response indicates two independent binding sites, whereas the lack of a cumulative response indicates a single site where ligands compete for binding, i.e., when analyte A occupies a ligand binding site, analyte B cannot bind. […] All response data were normalized to a 100-Da molecular weight for each analyte, allowing direct comparison of the responses. Both actual RU values and theoretical values are recorded for comparison.
Figure S6. […] A) Injections are […]
at 300 μM for 60 seconds). Final responses units (RU) of injections are recorded (indicated by dashed vertical […]
81 at 15 s econds after injection- B and l fu cose […]
and fucose were compet ed was 4.4 RU ± 0.46. As this value sits be low 5 RU, it indicates direct competition for […]
Final respons es units (RU) of injections ar e re cor ded (indicated […]
As this value sits between
5.07- 13.5 RU, it indicates direct competition for the same site with glucos e replacing some of the bound malic acid during the 60 second injection- B.

Regarding `NCCCC[C@H](N)C(=O)O` [Lysine], the “cell migration toward ligand decreased, Δtlp2,4 mutant” value in the test on Δtlp2,4 mutant amounted to 1.1 log. Moreover, the “increase in cell migration, Δtlp2,3,4 triple mutant” value in the test with Δtlp2,3,4 triple mutant was determined as 1.5 log. Moreover, the “cell migration toward ligand, Δtlp3,4 mutant” value in the test on Δtlp3,4 mutant is “no change in migration”. The “cell migration toward ligand increased, Δtlp2,3 mutant” value in the test with Δtlp2,3 mutant is reported as 1.8 log.

On to `C[C@H](O)[C@@H](O)[C@@H](O)[C@H](O)C=O` [Fucose], for which the “SPR response of single analyte” value with WT Tlp3^LBD is 9.86 RU.

These data come from PMC9769880, “Diverse Sensory Repertoire of Paralogous Chemoreceptors Tlp2, Tlp3, and Tlp4 in Campylobacter jejuni” (Microbiology Spectrum, 2022).
